Assay in all cases: Kinase panel profiling at 1 µmol/L (MSA or IMAP), percentage inhibition
Assay type in all cases: biochemical

Experiment [1] deals with panel of 255 wild-type kinases (Homo sapiens, UniProt P49674). Particulars: kinase CK1ε; 1 µmol/L single concentration; read-out: %-inhibition at 1 µmol/L, CK1ε.
The target of experiment [2] is panel of 255 wild-type kinases (Homo sapiens, UniProt Q16539). The following applies: p38α; 1 µmol/L single concentration; read-out: %-inhibition, p38α.
The target of experiment [3] is panel of 255 wild-type kinases (Homo sapiens, UniProt P54764). The following applies: kinase EPHA4; 1 µmol/L single concentration; read-out: %-inhibition at 1 µmol/L, EPHA4.
In experiment [4] the target is panel of 255 wild-type kinases (Homo sapiens, UniProt O43683). Particulars: BUB1/BUB3 kinase assay; 1 µmol/L single concentration; read-out: %-inhibition BUB1/BUB3.
The target in experiment [5] is panel of 255 wild-type kinases (Homo sapiens, UniProt P17612). The following applies: kinase PKACα; 1 µmol/L single concentration; read-out: %-inhibition at 1 µmol/L, PKACα.
The target in experiment [6] is panel of 255 wild-type kinases (Homo sapiens, UniProt O75582). Particulars: MSK1; 1 µmol/L single concentration; read-out: %-inhibition, MSK1.
For experiment [7], the target named is panel of 255 wild-type kinases (Homo sapiens, UniProt Q9NYY3). The following applies: kinase PLK2; 1 µmol/L single concentration; read-out: %-inhibition at 1 µmol/L, PLK2.
In experiment [8] the target is panel of 255 wild-type kinases (Homo sapiens, UniProt Q9H4A3). Particulars: kinase WNK1; 1 µmol/L single concentration; read-out: %-inhibition at 1 µmol/L, WNK1.
Experiment [9] has as its target panel of 255 wild-type kinases (Homo sapiens, UniProt Q9Y3S1). Particulars: kinase WNK2; 1 µmol/L single concentration; read-out: %-inhibition at 1 µmol/L, WNK2.
The target in experiment [10] is panel of 255 wild-type kinases (Homo sapiens, UniProt O75116). The following applies: kinase ROCK2; 1 µmol/L single concentration; read-out: %-inhibition at 1 µmol/L, ROCK2.
In experiment [11] the target is panel of 255 wild-type kinases (Homo sapiens, UniProt Q13164). Particulars: kinase Erk5; 1 µmol/L single concentration; read-out: %-inhibition at 1 µmol/L, Erk5.
For experiment [12], the target named is panel of 255 wild-type kinases (Homo sapiens, UniProt P05771). The following applies: kinase PKCβ1; 1 µmol/L single concentration; read-out: %-inhibition at 1 µmol/L, PKCβ1.
Experiment [13] deals with panel of 255 wild-type kinases (Homo sapiens, UniProt P16591). Particulars: kinase FER; 1 µmol/L single concentration; read-out: %-inhibition at 1 µmol/L, FER.
Experiment [14] addresses panel of 255 wild-type kinases (Homo sapiens, UniProt P07332). Particulars: kinase FES; 1 µmol/L single concentration; read-out: %-inhibition at 1 µmol/L, FES.
Experiment [15] concerns the target panel of 255 wild-type kinases (Homo sapiens, UniProt P07949). The following applies: kinase RET; 1 µmol/L single concentration; read-out: %-inhibition at 1 µmol/L, RET.
For experiment [16], the target named is panel of 255 wild-type kinases (Homo sapiens, UniProt P48729). The following applies: kinase CK1α; 1 µmol/L single concentration; read-out: %-inhibition at 1 µmol/L, CK1α.
Experiment [17] concerns the target panel of 255 wild-type kinases (Homo sapiens, UniProt Q07912). Particulars: ACK kinase assay; 1 µmol/L single concentration; read-out: %-inhibition ACK.
The target in experiment [18] is panel of 255 wild-type kinases (Homo sapiens, UniProt P16234). The following applies: kinase PDGFRα; 1 µmol/L single concentration; read-out: %-inhibition at 1 µmol/L, PDGFRα.
Experiment [19] concerns the target panel of 255 wild-type kinases (Homo sapiens, UniProt P07333). Particulars: kinase FMS; 1 µmol/L single concentration; read-out: %-inhibition at 1 µmol/L, FMS.

`Cn1cc(-c2cc3c(N4CCN(c5ncc([C@@](C)(N)c6ccc(F)cc6)cn5)CC4)ncnn3c2)cn1` [avapritinib]: the inhibition at 1 µM is 2.14% in experiment [1]; 0.843% in [2]; 35% in [3]; 4% in [4]; -20% in experiment [5]; 2.36% in [6]. Besides, the inhibition at 1 µM in [7] was 7%; in experiment [8] it was -5.32%; in experiment [9] it was 0.928%; in experiment [10], 11%; in experiment [11], 1.78%; in experiment [12], 1.74%. The inhibition at 1 µM in experiment [13] worked out at 1.71%; in [14], 1.65%; in [15] it was 96%; in experiment [16], 5%; in experiment [17], 73%.

On to `C[C@H](Nc1ncnc2nc[nH]c12)c1cc2cccc(Cl)c2c(=O)n1-c1ccccc1` [duvelisib], for which the inhibition at 1 µM was 2% in [18]; 5% in experiment [1]; 5% in experiment [2]; -0.265% in experiment [3]; -3.41% in experiment [4]; -7.56% in experiment [5]. The inhibition at 1 µM in experiment [6] is -8%; in experiment [7] it was 13%; in [8] it was -3%; in experiment [9], -1.82%; in experiment [10], -0.18%; in experiment [11], -0.634%. Further, the inhibition at 1 µM is 5% in experiment [12]; 2.22% in experiment [19]; -1.81% in experiment [13]; -0.806% in experiment [14]; 8% in experiment [15]; -2% in experiment [16]. Moreover, in experiment [17], the inhibition at 1 µM turned out to be 2.28%.

On to `COc1cc2ncnc(Nc3ccc(F)c(Cl)c3)c2cc1NC(=O)/C=C/CN1CCCCC1` [dacomitinib], for which the inhibition at 1 µM in [18] is 69%; in experiment [1], 6.55%; in [2] it was 39%; in experiment [3] it was 38%; in experiment [4], 22%; in [5] it was -11%. Further, the inhibition at 1 µM is 1.13% in experiment [6]; 5% in experiment [7]; -4% in [8]; -4% in [9]; -4.35% in experiment [10]; 0.172% in [11]. For the same compound, the inhibition at 1 µM in experiment [12] worked out at 3.74%; in [19] it was 8.55%; in experiment [13] it was 6.35%; in experiment [14], 1.56%; in experiment [15], 40%; in experiment [16] it was 8%. Besides, the inhibition at 1 µM in experiment [17] came to 32%.

As to `CCN1CCN(c2ccc(Nc3cc(N(C)C(=O)Nc4c(Cl)c(OC)cc(OC)c4Cl)ncn3)cc2)CC1` [infigratinib], the inhibition at 1 µM in experiment [18] is 59%; in experiment [1], -6.49%; in [2], 4.45%; in experiment [3], 0.256%; in experiment [4], -1.66%; in experiment [5], -28%. In addition, the inhibition at 1 µM is 2.27% in experiment [6]; 3.65% in experiment [7]; -4.6% in [8]; 1% in experiment [9]; -0.775% in experiment [10]; 30% in experiment [11]. The inhibition at 1 µM in [12] is 5%; in [19], 96%; in [13] it was 9.48%; in experiment [14] it was 20%; in [16], -7.38%; in experiment [17], 43%.

In the case of `Cn1cnc2c(F)c(Nc3ccc(Br)cc3Cl)c(C(=O)NOCCO)cc21` [selumetinib], the inhibition at 1 µM in [18] was 25%; in experiment [1] it was -0.361%; in experiment [2] it was 3.34%; in experiment [3] it was -2.57%; in experiment [4], -4%; in experiment [5], -28%. The inhibition at 1 µM was 3% in experiment [6]; 2.78% in [7]; -2.62% in experiment [8]; -4% in [9]; 2.83% in experiment [10]; 2.36% in experiment [11]. The inhibition at 1 µM in experiment [12] is 2.44%; in [19], 8.51%; in experiment [13] it was 1.22%; in experiment [14], -3.3%; in [15] it was 38%; in [16] it was -3.42%. Further, in [17], the inhibition at 1 µM worked out at 0.731%.

Consider `CN1CCN(c2ccc(C(=O)Nc3n[nH]c4ccc(Cc5cc(F)cc(F)c5)cc34)c(NC3CCOCC3)c2)CC1` [entrectinib], for which the inhibition at 1 µM in experiment [18] is 29%; in [1], 10%; in experiment [2], 7%; in experiment [3], 28%; in [4], -5.38%; in experiment [5] it was -7%. In addition, the inhibition at 1 µM in [6] was 0.468%; in experiment [7], 14%; in experiment [8], -2.18%; in experiment [9] it was 2.24%; in experiment [10], 7%; in [11] it was 13%. Also, the inhibition at 1 µM in [12] stood at 12%; in experiment [19], 86%; in [13], 99%; in experiment [14], 68%.

As to `C[C@H]1Oc2cc(cnc2N)-c2c(nn(C)c2C#N)CN(C)C(=O)c2ccc(F)cc21` [lorlatinib], the inhibition at 1 µM was 1.74% in experiment [18]; 0.583% in [1]; 6% in experiment [2]; 25% in experiment [3]; -5% in experiment [4]; -8% in [5]. Further, the inhibition at 1 µM in [6] was -8%; in experiment [7], 10%; in [8], 0.826%; in experiment [9] it was -0.739%; in experiment [10] it was 3.28%; in [11], 38%. The inhibition at 1 µM in experiment [12] was 7%; in [19], 32%; in [15], 10%; in experiment [16], -12%.

With `CCn1c(=O)c(-c2cc(NC(=O)Nc3ccccc3)c(F)cc2Br)cc2cnc(NC)cc21` [ripretinib], the inhibition at 1 µM in [1] is 1.8%; in [2], 88%; in experiment [3], 101%; in [4], 2.76%; in experiment [5], -16%; in experiment [6], 14%. Moreover, the inhibition at 1 µM in [7] was 6%; in [8], -5%; in experiment [9], -1.64%; in experiment [10], -1.2%; in experiment [11], 0.452%; in experiment [12], 1.06%. Also, the inhibition at 1 µM is 71% in [19]; 32% in experiment [13]; 23% in experiment [14]; 94% in experiment [15]; 11% in experiment [16]; 23% in [17].

The values above are taken from paper PMC9516332 (Frontiers in Oncology, 2022).
